Biological target: T1, CbMip (Coxiella burnetii, UniProt P51752)
T1 construct: gene mip
Test: biochemical

T1 sequence (P51752 22-230 limits assumed): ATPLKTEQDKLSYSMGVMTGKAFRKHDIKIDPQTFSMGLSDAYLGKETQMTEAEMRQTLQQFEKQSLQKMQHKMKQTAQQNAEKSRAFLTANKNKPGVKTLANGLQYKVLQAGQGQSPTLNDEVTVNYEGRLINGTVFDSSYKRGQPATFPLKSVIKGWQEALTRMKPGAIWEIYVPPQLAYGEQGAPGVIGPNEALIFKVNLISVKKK

In the case of `O=C(O[C@@H](Cc1ccccc1)C(=O)NCc1cccnc1)C1CCCCN1S(=O)(=O)Cc1ccccc1` (some centres unmarked) [ANCH37], the Ki is reported as 4.6 ± 0.9 µM.
`O=C(NCCOC(=O)[C@@H]1CCCCN1S(=O)(=O)Cc1ccccc1)c1cccnc1` [SF235] gave a Ki of 18 ± 4 µM.

Reference: publication PMC10348545 (PLOS Pathogens, 2023)
